In PMC10184129 (Journal of Medicinal Chemistry, 2023):

Tests used:
hBChE [1] = target: T1, hBChE (Homo sapiens, UniProt P06276)
[2] = test system: murine microglial N9 cells; conditions: LPS 100 ng/mL, 24 h; for TREM2 and TGFβ2 expression: 1-5 μM
[3] = test system: Aβ25–35-induced learning impairments in mice; conditions: 3 mg/kg IP
hBChE [4] = target: T1, hBChE; remark: listed apart in the source
rCB1R = rCB1R (Rattus norvegicus, UniProt P20272)
hCB2R = hCB2R (Homo sapiens, UniProt P34972)
hCB2R, sequence (P34972 whole entry): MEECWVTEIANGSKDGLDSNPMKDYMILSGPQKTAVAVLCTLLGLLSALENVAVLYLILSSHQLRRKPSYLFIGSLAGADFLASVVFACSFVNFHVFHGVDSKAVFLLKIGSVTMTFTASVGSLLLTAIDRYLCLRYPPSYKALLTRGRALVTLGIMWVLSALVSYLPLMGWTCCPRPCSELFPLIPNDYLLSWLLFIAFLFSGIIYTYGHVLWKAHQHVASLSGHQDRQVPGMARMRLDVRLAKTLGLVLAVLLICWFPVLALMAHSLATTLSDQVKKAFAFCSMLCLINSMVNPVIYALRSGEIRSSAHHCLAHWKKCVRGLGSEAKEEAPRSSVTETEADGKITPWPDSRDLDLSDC

T1 sequence (P06276 29-602): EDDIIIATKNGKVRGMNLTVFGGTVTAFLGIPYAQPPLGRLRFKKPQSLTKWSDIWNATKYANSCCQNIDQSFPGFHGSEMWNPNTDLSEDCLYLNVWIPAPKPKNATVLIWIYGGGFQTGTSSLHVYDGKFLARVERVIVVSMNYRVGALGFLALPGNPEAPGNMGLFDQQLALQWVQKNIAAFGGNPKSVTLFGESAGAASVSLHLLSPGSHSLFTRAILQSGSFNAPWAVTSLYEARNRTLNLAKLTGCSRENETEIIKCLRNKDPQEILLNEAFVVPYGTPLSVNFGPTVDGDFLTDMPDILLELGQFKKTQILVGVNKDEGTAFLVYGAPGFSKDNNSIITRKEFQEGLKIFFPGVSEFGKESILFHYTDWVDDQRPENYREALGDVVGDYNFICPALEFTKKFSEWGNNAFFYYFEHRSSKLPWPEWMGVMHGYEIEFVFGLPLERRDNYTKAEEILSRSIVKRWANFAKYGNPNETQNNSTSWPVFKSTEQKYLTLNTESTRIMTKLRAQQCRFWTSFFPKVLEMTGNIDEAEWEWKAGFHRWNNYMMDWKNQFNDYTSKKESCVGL
rCB1R, sequence (P20272 whole entry): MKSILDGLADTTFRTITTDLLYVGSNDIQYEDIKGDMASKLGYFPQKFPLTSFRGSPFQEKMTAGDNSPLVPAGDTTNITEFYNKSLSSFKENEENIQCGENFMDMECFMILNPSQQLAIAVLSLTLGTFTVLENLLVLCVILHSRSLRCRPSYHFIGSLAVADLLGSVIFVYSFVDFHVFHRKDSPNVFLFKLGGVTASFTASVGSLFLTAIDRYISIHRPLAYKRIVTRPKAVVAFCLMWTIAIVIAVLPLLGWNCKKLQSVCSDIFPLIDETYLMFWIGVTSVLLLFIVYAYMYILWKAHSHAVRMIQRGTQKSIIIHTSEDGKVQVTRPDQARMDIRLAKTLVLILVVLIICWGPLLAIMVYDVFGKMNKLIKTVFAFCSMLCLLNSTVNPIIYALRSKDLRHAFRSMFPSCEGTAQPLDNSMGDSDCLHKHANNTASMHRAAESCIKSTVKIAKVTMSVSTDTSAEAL

CCN(CC)C(=O)c1ccc2c(c1)nc(Cc1ccc(OC(=O)N(C)C)cc1)n2CCC(C)C [15d, 4-((5-(Diethylcarbamoyl)-1-isopentyl-1H-benzo[d]imidazole-2-yl)methyl)phenyl dimethylcarbamate]
νmax, times higher than compound 21d (hBChE [1]): 15
TREM2 and TGFβ2 expression [2]: No parallel change
concentration significantly decreasing expression of (i)NOS ([2]; Western blot): 1.0 µM
effect of highest dose on Aβ25–35-induced learning deficits, passive avoidance [3]: complete blockade

CCOc1ccc(Cc2nc3cc(OC(=O)N(C)C)ccc3n2CCC(C)C)cc1 [21a, 2-(4-Ethoxybenzyl)-1-isopentyl-1H-benzo[d]imidazole-5-yl dimethylcarbamate]
fold less active on hBChE than counterpart 15d (hBChE [4]): more than 100 fold

CCOc1ccc(Cc2nc3cc(OC(=O)N(C)CC)ccc3n2CCC(C)C)cc1 [21b, 2-(4-Ethoxybenzyl)-1-isopentyl-1H-benzo[d]imidazole-5-yl ethyl(methyl)carbamate]
affinity toward CB1R (in words) (rCB1R): only exception

CCOc1ccc(Cc2nc3cc(C(=O)N(CC)CC)ccc3n2CCC(C)C)cc1 [compound 4]
agonist character in calcium mobilization (hCB2R): full agonist

CCOc1ccc(Cc2nc3cc(OC(=O)N4CCC4)ccc3n2CCC(C)C)cc1 [21d, 2-(4-Ethoxybenzyl)-1-isopentyl-1H-benzo[d]imidazole-5-yl Azetidine-1-carboxylate]
TREM2 and TGFβ2 expression [2]: No parallel change
concentration significantly decreasing expression of (i)NOS ([2]; Western blot): 2.5 µM
concentration significantly reducing IL1β release ([2]; Western blot): 1.0 µM
